The source of these data is patent US20110178104A1, “Anti-Heparin Compounds” (POLYMEDIX INC., priority 2010, published 2011).

SMILES strings stand for the structures.

For one experiment, the system named is enoxaparin. Put plainly: FXa amidolytic assay (Example 10), enoxaparin. The note with it: read-out: Enox FXa EC50; enoxaparin 0.1 ug/ml; human antithrombin, bovine Factor Xa.
The next experiment has as its system tinzaparin. The experiment is described as follows: FXa amidolytic assay (Example 10), tinzaparin. The note with it: read-out: Tinzap FXa EC50; tinzaparin 0.1 ug/ml; human antithrombin, bovine Factor Xa.
A further experiment concerns fondaparinux. The experiment is described as follows: FXa amidolytic assay (Example 10), fondaparinux. The note with it: read-out: Fondap FXa EC50; fondaparinux 0.02 μg/mL; human antithrombin, bovine Factor Xa.
The test system of the next experiment is Unfractionated heparin. Put plainly: aPTT clotting assay, UFH 0.4 U/mL in plasma (Example 10). The experiment is classed as biochemical. To be noted: unfractionated heparin 0.4 U/mL in plasma; aPTT clotting. How it is done:
aPTT clotting Assay: Unfractionated heparin was mixed with plasma at a final concentration of 0.4 U/mL (or concentration which increases aPTT time to between 120 and 300 seconds). […] The ACL Elite Hemostasis analyzer (Beckman Coulter™) was used to add aPTT reagent (HemosIL SynthASil) to supplemented plasma. Clotting was initiated by addition of CaCl2 and time to clot was recorded.

Method for enoxaparin: (§1) Two μl of test agent are added (range between 0.01 and 23 ug/ml) and incubated for 5 minutes at 23° C. Bovine Factor Xa was added to a final concentration of 0.636 nkat/mL and incubated for a further 10 minutes at 23° C.
Method for fondaparinux: as §1
Method for tinzaparin: as §1

For the molecule `CCOC(=O)CC(=O)N[C@@H](CCCCN)C(=O)Nc1ccc(OC)c(C(=O)N[C@@H](CCCCN)C(=O)Nc2ccc(OC)c(C(=O)N[C@@H](CCCCN)C(=O)Nc3ccc(OC)c(C(=O)N[C@@H](CCCCN)C(=O)Nc4ccc(OC)c(C(N)=O)c4)c3)c2)c1` [Compound 337], the values for the EC50 in the experiment on enoxaparin, in the experiment on tinzaparin and with fondaparinux were 225 nM, 174 nM and 1830 nM, respectively.

On to `COc1ccc(NC(=O)[C@@H](CCCNC(=N)N)NC(=O)c2cc(NC(=O)[C@@H](CCCNC(=N)N)NC(=O)c3cccc(NC(=O)[C@@H](CCCNC(=N)N)NC(=O)c4cc(NC(=O)[C@H](N)CCCNC(=N)N)ccc4OC)n3)ccc2OC)cc1C(N)=O` [Compound 211], for which the results for the EC50 in the experiment with enoxaparin, in the experiment with fondaparinux and with Unfractionated heparin were 137 nM, 2870 nM and 5900 nM, respectively.

For the molecule `COc1ccc(NC(=O)[C@H](CCCCN)NC(=O)c2cc(NC(=O)[C@H](CCCCN)NC(=O)c3cc(NC(=O)[C@H](CCCCN)NC(=O)c4cc(NC(=O)[C@H](CCCCN)NC(=O)c5ccccc5C(=O)O)ccc4OC)ccc3OC)ccc2OC)cc1C(N)=O` [Compound 343], the 50% effective concentration (EC50) was found to be 235 nM with enoxaparin, 201 nM in the experiment on tinzaparin and 932 nM in the experiment with fondaparinux.

`COc1ccc(NC(=O)[C@H](CCCCN)NC(=O)c2cc(NC(=O)[C@H](CCCNC(=N)N)NC(=O)c3cc(NC(=O)[C@H](CCCCN)NC(=O)c4cc(NC(=O)[C@@H](N)CCCCN)ccc4OC)ccc3OC)ccc2OC)cc1C(N)=O` [Compound 204]: the figures for the 50% effective concentration (EC50) with enoxaparin and in the experiment with Unfractionated heparin were 239 nM and 3020 nM, respectively.

As to `COc1ccc(NC(=O)[C@H](CCCCN)NC(=O)c2cc(NC(=O)[C@H](CCCCN)NC(=O)c3cc(NC(=O)[C@H](CCCCN)NC(=O)c4cc(NC(=O)[C@H](CCCCN)NC(=N)N)ccc4OC)ccc3OC)ccc2OC)cc1C(N)=O` [Compound 292], the EC50 worked out at 450 nM in the experiment on enoxaparin and 4790 nM in the experiment on fondaparinux.

Take `COC(=O)CCCC(=O)N[C@@H](CCCCN)C(=O)Nc1ccc(OC)c(C(=O)N[C@@H](CCCCN)C(=O)Nc2ccc(OC)c(C(=O)N[C@@H](CCCCN)C(=O)Nc3ccc(OC)c(C(=O)N[C@@H](CCCCN)C(=O)Nc4ccc(OC)c(C(N)=O)c4)c3)c2)c1` [Compound 341]: the concentration giving a half-maximal response (EC50) with enoxaparin is 198 nM; with tinzaparin it was 138 nM; in the experiment with fondaparinux it was 1580 nM.

On to `COc1cc(OC)c(C(=O)N[C@H]2CC[C@@H](NC(=O)c3cc(C(=O)NCCN(C)C)c(OCCNC(=N)N)cc3OCCNC(=N)N)CC2)cc1C(=O)N[C@H]1CC[C@@H](NC(=O)c2cc(C(=O)NCCN(C)C)c(OCCNC(=N)N)cc2OCCNC(=N)N)CC1` [Compound 225], for which the EC50 came out at 1060 nM with enoxaparin, 359 nM in the experiment with tinzaparin and 12100 nM with Unfractionated heparin.

Consider `COc1ccc(NC(=O)[C@H](CCCCN)NC(=O)c2cc(NC(=O)[C@H](CCCCN)NC(=O)c3cc(NC(=O)[C@H](CCCNC(=N)N)NC(=O)c4cc(NC(=O)[C@@H](N)CCCCN)ccc4OC)ccc3OC)ccc2OC)cc1C(N)=O` [Compound 205], for which the EC50 with enoxaparin turned out to be 202 nM.

Regarding `COC(=O)CCC(=O)N[C@@H](CCCCN)C(=O)Nc1ccc(OC)c(C(=O)N[C@@H](CCCCN)C(=O)Nc2ccc(OC)c(C(=O)N[C@@H](CCCCN)C(=O)Nc3ccc(OC)c(C(=O)N[C@@H](CCCCN)C(=O)Nc4ccc(OC)c(C(N)=O)c4)c3)c2)c1` [Compound 338], the 50% effective concentration (EC50) is 241 nM in the experiment on enoxaparin, 176 nM in the experiment on tinzaparin and 2750 nM in the experiment on fondaparinux.

With `COc1ccc(NC(=O)[C@@H](CCCNC(=N)N)NC(=O)c2cc(NC(=O)[C@@H](CCCNC(=N)N)NC(=O)c3cc(NC(=O)[C@@H](CCCNC(=N)N)NC(=O)c4cc(NC(=O)[C@H](N)CCCNC(N)=O)ccc4OC)ccc3OC)ccc2OC)cc1C(N)=O` [Compound 207], the EC50 in the experiment with enoxaparin amounted to 39 nM.

Consider `COc1ccc(NC(=O)[C@H](CCCCN)NC(=O)c2cc(NC(=O)[C@H](C)NC(=O)c3cc(NC(=O)[C@H](CCCCN)NC(=O)c4cc(NC(=O)[C@@H](N)CCCCN)ccc4OC)ccc3OC)ccc2OC)cc1C(N)=O` [Compound 201], for which the half-maximal effective concentration (EC50) with enoxaparin is 974 nM; in the experiment with Unfractionated heparin it was 6000 nM.

With `CN(C)CCNC(=O)c1cc(C(=O)NC2CCC(NC(=O)c3cc(C(=O)NCCN(C)C)c(OCCCCCN)cc3OCCCCCN)CC2)c(OCCCCCN)cc1OCCCCCN` (stereo not shown) [Compound 227], the EC50 in the experiment on Unfractionated heparin is > 10000 nM.

As for `COc1cc(OC)c(C(=O)N[C@H]2CC[C@H](NC(=O)c3cc(C(=O)NCCN(C)C)c(OCCNC(=N)N)cc3OCCNC(=N)N)CC2)cc1C(=O)N[C@H]1CC[C@H](NC(=O)c2cc(C(=O)NCCN(C)C)c(OCCNC(=N)N)cc2OCCNC(=N)N)CC1` [Compound 226], the results for the EC50 with enoxaparin, in the experiment on tinzaparin and in the experiment on Unfractionated heparin were 852 nM, 343 nM and 12900 nM, respectively.

For the molecule `COc1ccc(NC(=O)[C@H](CCCCN)NC(=O)c2cc(NC(=O)[C@H](CCCCN)NC(=O)c3cccc(NC(=O)[C@H](CCCCN)NC(=O)c4cc(NC(=O)[C@@H](N)CCCCN)ccc4OC)c3)ccc2OC)cc1C(N)=O` [Compound 215], the EC50 amounted to 73 nM in the experiment on enoxaparin, 288 nM with fondaparinux and 2850 nM in the experiment with Unfractionated heparin.

Take `CCOc1ccc(NC(=O)[C@@H](CCCNC(=N)N)NC(=O)c2cc(NC(=O)[C@@H](CCCNC(=N)N)NC(=O)c3cc(NC(=O)[C@@H](CCCNC(=N)N)NC(=O)c4cc(NC(=O)[C@H](N)CCCNC(=N)N)ccc4OC)ccc3OC)ccc2OC)cc1C(N)=O` [Compound 217]: the concentration giving a half-maximal response (EC50) in the experiment on enoxaparin worked out at 74 nM; in the experiment on fondaparinux, 252 nM; in the experiment with Unfractionated heparin, 1120 nM.

Turning to `COc1ccc(NC(=O)[C@H](CCCCN)NC(=O)c2cccc(NC(=O)[C@H](CCCCN)NC(=O)c3cc(NC(=O)[C@H](CCCCN)NC(=O)c4cc(NC(=O)[C@@H](N)CCCCN)ccc4OC)ccc3OC)c2)cc1C(N)=O` [Compound 214], the EC50 worked out at 87 nM in the experiment with enoxaparin, 432 nM in the experiment with fondaparinux and 1910 nM in the experiment with Unfractionated heparin.

On to `COc1ccc(C(N)=O)cc1NC(=O)[C@@H](CCCNC(=N)N)NC(=O)c1cc(NC(=O)[C@@H](CCCNC(=N)N)NC(=O)c2cc(NC(=O)[C@@H](CCCNC(=N)N)NC(=O)c3cc(NC(=O)[C@H](N)CCCNC(=N)N)ccc3OC)ccc2OC)ccc1OC` [Compound 210], for which the EC50 was determined as 82 nM in the experiment on enoxaparin, 1400 nM in the experiment on fondaparinux and 2550 nM in the experiment on Unfractionated heparin.

For the molecule `COc1ccc(NC(=O)[C@@H](CCCNC(=N)N)NC(=O)c2cc(NC(=O)[C@@H](CCCNC(=N)N)NC(=O)c3cc(NC(=O)[C@@H](CCCNC(=N)N)NC(=O)c4cccc(NC(=O)[C@H](N)CCCNC(=N)N)c4)ccc3OC)ccc2OC)cc1C(N)=O` [Compound 212], the EC50 with enoxaparin turned out to be 73 nM; in the experiment on fondaparinux, 259 nM; in the experiment on Unfractionated heparin, 883 nM.

On to `COc1ccc(NC(=O)[C@H](CCCCN)NC(=O)c2cc(NC(=O)[C@H](CCCCN)NC(=O)c3cc(NC(=O)[C@H](C)NC(=O)c4cc(NC(=O)[C@@H](N)CCCCN)ccc4OC)ccc3OC)ccc2OC)cc1C(N)=O` [Compound 202], for which the results for the EC50 with enoxaparin and in the experiment on Unfractionated heparin were 398 nM and 4550 nM, respectively.

As for `COc1ccc(NC(=O)[C@H](CCCNC(=N)N)NC(=O)c2cc(NC(=O)[C@H](CCCCN)NC(=O)c3cc(NC(=O)[C@H](CCCCN)NC(=O)c4cc(NC(=O)[C@@H](N)CCCCN)ccc4OC)ccc3OC)ccc2OC)cc1C(N)=O` [Compound 203], the concentration for a half-maximal effect (EC50) in the experiment with enoxaparin came out at 283 nM; with Unfractionated heparin, 2990 nM.

On to `COc1ccc(NC(=O)[C@@H](CCCNC(=N)N)NC(=O)CCCCNC(=N)N)cc1C(=O)N[C@H](CCCNC(=N)N)C(=O)Nc1ccc(OC)c(C(=O)N[C@H](CCCNC(=N)N)C(=O)Nc2ccc(OC)c(C(=O)N[C@H](CCCNC(=N)N)C(=O)Nc3ccc(OCCNC(=N)N)c(C(N)=O)c3)c2)c1` [Compound 291], for which the EC50 is 47 nM in the experiment on enoxaparin, 1180 nM in the experiment on fondaparinux and 2480 nM in the experiment on Unfractionated heparin.

As for `COc1cc(OC)c(C(=O)N[C@H]2CC[C@H](NC(=O)c3cc(C(=O)N[C@H]4CC[C@H](NC(=O)c5cc(C(=O)NCCN(C)C)c(OC)cc5OC)CC4)c(OCCCCCNC(=N)N)cc3OCCCCCNC(=N)N)CC2)cc1C(=O)NCCN(C)C` [Compound 220], the EC50 was 125 nM in the experiment with enoxaparin and 5450 nM in the experiment with Unfractionated heparin.

Take `CCOc1ccc(NC(=O)[C@@H](CCCNC(=N)N)NC(=O)c2cc(NC(=O)[C@H](N)CCCNC(=N)N)ccc2OC)cc1C(=O)N[C@H](CCCNC(=N)N)C(=O)Nc1ccc(OC)c(C(=O)N[C@H](CCCNC(=N)N)C(=O)Nc2ccc(OC)c(C(N)=O)c2)c1` [Compound 218]: the EC50 in the experiment with enoxaparin amounted to 74 nM; in the experiment on fondaparinux it was 176 nM; with Unfractionated heparin it was 853 nM.

As to `COc1ccc(NC(=O)[C@@H](CCCCN)NC(=O)c2c(OC)ccc(NC(=O)[C@@H](CCCCN)NC(=O)c3c(OC)ccc(NC(=O)[C@@H](CCCCN)NC(=O)c4c(OC)ccc(NC(=O)[C@H](N)CCCCN)c4OC)c3OC)c2OC)c(OC)c1C(N)=O` [Compound 293], the EC50 in the experiment on enoxaparin and in the experiment with fondaparinux was > 10000 nM throughout.

With `COc1ccc(NC(=O)[C@H](CCCCN)NC(=O)c2cc(NC(=O)[C@H](CCCCN)NC(=O)c3cc(NC(=O)[C@@H](N)CCCCN)ccc3OC)ccc2OC)cc1C(=O)N[C@@H](CCCCN)C(=O)Nc1cccc(C(N)=O)c1` [Compound 213], the EC50 worked out at 78 nM with enoxaparin, 354 nM in the experiment with fondaparinux and 893 nM with Unfractionated heparin.

For `COc1ccc(NC(=O)[C@H](CCCCN)NC(=O)c2cc(NC(=O)[C@H](CCCCN)NC(=O)c3cc(NC(=O)[C@H](CCCCN)NC(=O)c4cc(NC(=O)[C@@H](N)CCCNC(=N)N)ccc4OC)ccc3OC)ccc2OC)cc1C(N)=O` [Compound 206], the 50% effective concentration (EC50) amounted to 148 nM in the experiment on enoxaparin and 1960 nM in the experiment with Unfractionated heparin.
